Experiments:
Assay type in all cases: cell-based
TLR6 = biological target: T1, TLR6 (Homo sapiens, UniProt Q9Y2C9); experiment: TLR agonist IL-8 production in BEAS2B epithelial cells, TLR6; details: MALP2, 48 h
T1 construct: endogenous in cells; host or cells: BEAS2B
Method: (§1) In this experiment, multiple TLRs were stimulated with defined TLR agonists for 48 h, and the IL-8 production was measured. In each case, the maximal stimulation by agonist is set at 100% and the antagonism by POPG or PI is expressed as the relative % response. The Controls consist of no treatment, or treatment with POPG, or phosphatidylcholine (POPC), or phosphatidylinositol (PI), in the absence of agonist as indicated. The agonists for the TLRs consist of Pam3Cys for TLR1/2, Mycoplasma pneumoniae membranes as an agonist for TLR2, Mycoplasma fermentans derived MALP2 as an agonist for TLR 2/6, double stranded RNA (poly IC) for TLR3, and bacterial flagellin (Fla) as an agonist for TLR5.
(§2) Monolayers of BEAS2B cells were challenged with the TLR1/2 agonist, Pam3Cys (25 ug/ml); the TLR 2/6 agonist MALP2 (10 ng/ml); the TLR2 agonist mycoplasma membrane (Mem) (1 ug/ml); the TLR3 agonist, poly I:C (0.1 ug/ml); and the TLR5 agonist, flagellin (100 ng/ml). For each agonist parallel incubations were performed containing 200 ug/ml POPG as liposomes, or 200 ug/ml POPG as nanodises as indicated.

TLR3 = biological target: T2, TLR3 (Homo sapiens, UniProt O15455); experiment: TLR agonist IL-8 production in BEAS2B epithelial cells, TLR3; set-up: endogenous in cells; host or cells: BEAS2B; details: poly IC, 48 h
T2 sequence (O15455 24-904): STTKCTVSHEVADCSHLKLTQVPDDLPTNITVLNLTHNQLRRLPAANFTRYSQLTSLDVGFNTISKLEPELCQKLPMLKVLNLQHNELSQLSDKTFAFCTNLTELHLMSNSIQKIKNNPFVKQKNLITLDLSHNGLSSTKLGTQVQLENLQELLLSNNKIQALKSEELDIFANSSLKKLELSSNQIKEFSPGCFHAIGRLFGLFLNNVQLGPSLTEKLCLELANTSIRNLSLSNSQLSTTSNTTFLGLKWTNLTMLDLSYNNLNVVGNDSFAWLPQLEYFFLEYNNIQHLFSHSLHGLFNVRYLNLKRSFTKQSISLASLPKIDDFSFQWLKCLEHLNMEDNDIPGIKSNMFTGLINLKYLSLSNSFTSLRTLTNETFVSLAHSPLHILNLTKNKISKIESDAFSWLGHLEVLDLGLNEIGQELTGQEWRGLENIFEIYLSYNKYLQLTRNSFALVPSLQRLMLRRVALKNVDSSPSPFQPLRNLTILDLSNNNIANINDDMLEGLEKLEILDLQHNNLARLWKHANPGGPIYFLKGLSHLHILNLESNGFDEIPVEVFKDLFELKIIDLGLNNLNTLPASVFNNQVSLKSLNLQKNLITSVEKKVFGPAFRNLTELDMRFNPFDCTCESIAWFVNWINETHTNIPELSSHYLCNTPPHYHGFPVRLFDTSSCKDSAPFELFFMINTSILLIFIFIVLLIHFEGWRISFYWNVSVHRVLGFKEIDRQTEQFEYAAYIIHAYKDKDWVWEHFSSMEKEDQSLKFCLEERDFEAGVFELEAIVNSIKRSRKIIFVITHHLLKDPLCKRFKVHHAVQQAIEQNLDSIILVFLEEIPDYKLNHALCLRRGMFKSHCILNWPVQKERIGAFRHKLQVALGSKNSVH
Method: as §1, §2

RAW264.7 cells = experiment: BODIPY-LPS association with RAW264.7 macrophages (FACScan); details: BODIPY-LPS 1 μg/ml, liposomes 200 μg/ml, 4 h
Method: FIG. 11. Anionic phospholipids block BODIPY-LPS association with RAW264.7 macrophages. Liposomes were prepared by bath-sonication at room temperature for 30 min. RAW264.7 cells (10^6/tube) were incubated either without or with 1 μg/ml BODIPY-LPS in the presence or absence of liposomes (200 μg/ml) at 4° C. for 4 h. Subsequently the cells were washed by centrifugation and the cell associated fluorescence was quantified by FACScan. […] In panel B the mean fluorescence intensity (MFI) ratio of cells plus LPS/cells without LPS is plotted against different phospholipid treatments. Values shown in B are means±SE for three independent experiments with duplicate determinations in each experiment. Significance—* p<0.05, ** p<0.01
RAW264.7 cells (10^6) were incubated with BODIPY-LPS (1 μg/ml) either with or without phospholipid liposomes (200 μg/ml) at 4° C. for 4 h. When liposomes were added, […] preceded the addition of fluorescent LPS. After the cells were washed with PBS by centrifugation, cell adherent fluorescence was determined using FACScan. Macrophages were counted for 20,000 cells and the graph was made by CellQuest software.

TLR1 = biological target: T3, TLR1 (Homo sapiens, UniProt Q15399); experiment: TLR agonist IL-8 production in BEAS2B epithelial cells, TLR1; set-up: endogenous in cells; host or cells: BEAS2B; details: Pam3Cys, 48 h
T3 sequence (Q15399 25-786): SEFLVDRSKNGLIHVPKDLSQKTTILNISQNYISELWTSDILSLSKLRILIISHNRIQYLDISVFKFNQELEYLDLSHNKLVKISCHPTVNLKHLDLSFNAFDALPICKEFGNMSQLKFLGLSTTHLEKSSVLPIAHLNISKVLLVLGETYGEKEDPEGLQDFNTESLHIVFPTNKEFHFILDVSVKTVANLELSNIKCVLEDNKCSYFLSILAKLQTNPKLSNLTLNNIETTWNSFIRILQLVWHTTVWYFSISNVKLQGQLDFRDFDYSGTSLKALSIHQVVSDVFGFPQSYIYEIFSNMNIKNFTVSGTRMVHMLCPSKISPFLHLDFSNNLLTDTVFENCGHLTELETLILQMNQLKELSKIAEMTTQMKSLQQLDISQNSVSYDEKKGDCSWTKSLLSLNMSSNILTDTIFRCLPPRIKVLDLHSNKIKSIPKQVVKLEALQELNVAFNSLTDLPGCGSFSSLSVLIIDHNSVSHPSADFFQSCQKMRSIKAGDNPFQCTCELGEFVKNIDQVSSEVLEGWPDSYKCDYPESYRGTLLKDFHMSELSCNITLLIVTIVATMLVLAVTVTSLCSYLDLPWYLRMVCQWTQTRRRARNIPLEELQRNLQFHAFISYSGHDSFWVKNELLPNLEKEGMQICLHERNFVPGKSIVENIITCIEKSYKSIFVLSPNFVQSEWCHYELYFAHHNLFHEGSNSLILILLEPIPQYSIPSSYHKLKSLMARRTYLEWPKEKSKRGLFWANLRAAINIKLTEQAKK
Method: as §1, §2

TLR2 = TLR2 (Homo sapiens, UniProt O60603); experiment: TLR agonist IL-8 production in BEAS2B epithelial cells, TLR2; set-up: endogenous in cells; host or cells: BEAS2B; details: Mycoplasma pneumoniae membranes, 48 h
Sequence of TLR2 (O60603 21-784): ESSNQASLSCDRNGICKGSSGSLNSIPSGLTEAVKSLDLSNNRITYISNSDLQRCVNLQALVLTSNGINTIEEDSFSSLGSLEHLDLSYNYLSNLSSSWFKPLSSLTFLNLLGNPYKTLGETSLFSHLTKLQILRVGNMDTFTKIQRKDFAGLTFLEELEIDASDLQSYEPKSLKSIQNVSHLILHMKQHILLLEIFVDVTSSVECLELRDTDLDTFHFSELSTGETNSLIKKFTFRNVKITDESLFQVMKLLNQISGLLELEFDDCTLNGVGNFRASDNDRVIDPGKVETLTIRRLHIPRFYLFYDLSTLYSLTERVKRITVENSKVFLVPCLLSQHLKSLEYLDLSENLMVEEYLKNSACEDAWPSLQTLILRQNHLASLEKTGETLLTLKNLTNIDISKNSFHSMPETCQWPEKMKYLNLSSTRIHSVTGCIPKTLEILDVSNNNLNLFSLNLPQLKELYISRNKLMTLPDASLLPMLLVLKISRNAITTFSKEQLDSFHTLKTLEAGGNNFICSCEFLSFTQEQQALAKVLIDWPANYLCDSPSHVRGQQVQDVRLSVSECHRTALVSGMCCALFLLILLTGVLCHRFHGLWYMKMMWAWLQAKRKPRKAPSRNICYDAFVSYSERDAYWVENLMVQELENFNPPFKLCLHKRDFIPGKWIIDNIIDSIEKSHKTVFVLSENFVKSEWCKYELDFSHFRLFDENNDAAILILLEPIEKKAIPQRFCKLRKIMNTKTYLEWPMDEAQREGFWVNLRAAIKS
Method: as §1, §2

T1 sequence (Q9Y2C9 32-796): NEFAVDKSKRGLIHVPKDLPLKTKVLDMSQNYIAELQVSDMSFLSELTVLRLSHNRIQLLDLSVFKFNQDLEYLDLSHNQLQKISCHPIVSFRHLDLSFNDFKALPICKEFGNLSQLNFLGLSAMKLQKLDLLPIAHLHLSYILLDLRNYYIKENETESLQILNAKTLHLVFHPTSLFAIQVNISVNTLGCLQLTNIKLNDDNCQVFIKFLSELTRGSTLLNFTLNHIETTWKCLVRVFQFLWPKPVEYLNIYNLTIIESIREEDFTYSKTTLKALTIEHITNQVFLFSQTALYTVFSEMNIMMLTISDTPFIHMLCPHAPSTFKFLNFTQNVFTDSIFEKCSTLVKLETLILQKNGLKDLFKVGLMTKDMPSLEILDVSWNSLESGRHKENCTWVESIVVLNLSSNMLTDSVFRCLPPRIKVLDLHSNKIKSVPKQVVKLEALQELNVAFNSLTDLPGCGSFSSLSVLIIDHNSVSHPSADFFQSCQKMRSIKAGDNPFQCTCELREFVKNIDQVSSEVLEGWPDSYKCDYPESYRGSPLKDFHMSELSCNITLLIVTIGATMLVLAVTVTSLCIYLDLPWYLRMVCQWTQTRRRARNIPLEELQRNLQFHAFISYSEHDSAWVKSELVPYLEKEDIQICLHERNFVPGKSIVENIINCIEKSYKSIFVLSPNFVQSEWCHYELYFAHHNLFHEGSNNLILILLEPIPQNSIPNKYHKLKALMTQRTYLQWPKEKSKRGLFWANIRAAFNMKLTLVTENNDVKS

Compound | activity of TLR6 (IL-8 production) (TLR6) | activity of TLR3 (IL-8 production) (TLR3) | binding of BODIPY-LPS to the surface of macrophages (RAW264.7 cells) | activity of TLR1 (IL-8 production) (TLR1) | activity of TLR2 (IL-8 production) (TLR2)
CCCCCCCC/C=C\CCCCCCCC(=O)O[C@H](COC(=O)CCCCCCCCCCCCCCC)COP(=O)(O)OCC(O)CO (stereo partly shown) [POPG, palmitoyl-oleoyl-phosphatidylglycerol] | inhibit | inhibit | blocks the binding | inhibit | inhibit
phosphatidylinositol [PI] | inhibit | inhibit | blocks the binding | inhibit | inhibit

Source: patent US10532066B2, “Surfactant lipids, compositions thereof, and uses thereof” (National Jewish Health, priority 2007, dated 2020)
